Our source for the relative viability values is the supplement of paper PMC10307832.

Assay in all cases: relative viability (nuclei count vs DMSO), 5 days (fraction); higher = more cells survive
Compound in assay [1]: CCC1=CN=CN=C1N2CCN(CC2)CC3=NC4=C(N3)C=C(C=C4)C(F)(F)F + CC(=O)Nc1cccc(-n2c(=O)n(C3CC3)c(=O)c3c(Nc4ccc(I)cc4F)n(C)c(=O)c(C)c32)c1 [Trametinib] (partner 0.02 µM)
The method in brief: (§1)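 Relative viability equals treated-well nuclei counts divided by vehicle-well nuclei counts. Counts came from 4× images of lung cancer cell lines grown in 1536-well plates for 5 days after pin-tool dosing on the day after seeding. Dosing used one drug alone or a fixed anchor-drug dose plus five library-drug doses (not always all listed) in √10 steps, and values are medians of duplicate plates.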

Compound in assay [2]: CCn1c(-c2nonc2N)nc2cnc(Oc3cccc(NC(=O)c4ccc(OCCN5CCOCC5)cc4)c3)cc21 + CCNC(=O)c1noc(-c2cc(C(C)C)c(O)cc2O)c1-c1ccc(CN2CCOCC2)cc1 [Luminespib] (partner 0.01 µM)
The method in brief:
as §1

Compound in the assay “Mirin + Trametinib”: N=C1NC(=O)/C(=C/c2ccc(O)cc2)S1 [Mirin] + CC(=O)Nc1cccc(-n2c(=O)n(C3CC3)c(=O)c3c(Nc4ccc(I)cc4F)n(C)c(=O)c(C)c32)c1 [Trametinib] (partner 0.02 µM)
The method in brief:
as §1

Compound in the assay “Mirin + Alpelisib”: N=C1NC(=O)/C(=C/c2ccc(O)cc2)S1 [Mirin] + Cc1nc(NC(=O)N2CCC[C@H]2C(N)=O)sc1-c1ccnc(C(C)(C)C(F)(F)F)c1 [Alpelisib] (partner 2 µM)
The method in brief: as §1

For the cell line UMC-11, the relative viability in assay [1] (first compound 0.04 µM) was determined as 0.721; in assay [1] (first compound 0.1265 µM), 0.592; in assay [1] (first compound 0.4 µM) it was 0.671; in assay [1] (first compound 1.265 µM) it was 0.514; in assay [1] (first compound 4 µM), 0.721; in assay [2] (first compound 0.04 µM), 1.03. The relative viability in assay [2] (first compound 0.1265 µM) worked out at 0.915; in assay [2] (first compound 0.4 µM), 0.83; in assay [2] (first compound 1.265 µM), 0.291; in assay [2] (first compound 4 µM), 0.222; in the assay with Mirin + Trametinib (first compound 0.25 µM), 0.721; with Mirin + Trametinib (first compound 0.7906 µM) it was 0.381. The relative viability with Mirin + Trametinib (first compound 2.5 µM) was 0.778; in the assay with Mirin + Trametinib (first compound 7.906 µM), 0.558; with Mirin + Trametinib (first compound 25 µM), 0.496; with Mirin + Alpelisib (first compound 0.25 µM), 1.03; with Mirin + Alpelisib (first compound 0.7906 µM), 0.958; in the assay with Mirin + Alpelisib (first compound 2.5 µM), 0.96. The relative viability with Mirin + Alpelisib (first compound 7.906 µM) turned out to be 0.935; with Mirin + Alpelisib (first compound 25 µM), 0.572.
